System: SK-N-SH cells
Assay: MTT viability with dexamethasone
Format: cell-based, human
Settings: 24 h
Method: Preliminary results: The expression of GILZ in human neuroblastoma cells was evaluated. […] After resting, the cells were cultured with increasing concentrations of dexamethasone (Dex: 0-10 μM) for 24 h and viability was determined by the MTT assay by measuring the absorbance of the intracellular formazon resulting from the reduction of the yellow tetrazolium MTT by the cell metabolic activity. Absorbance of vehicle treated cells was taken as 100% viable. GILZ expression was measured in protein extracts from separate SK-N-SH cultures by Western blot analysis using GILZ mAb [Santa Cruz Biotechnology, Dallas, Tex.]. Total RNA isolated from similar SK-N-SH cultures was reverse transcribed and the GILZ mRNA was amplified using the SYBR green qPCR mix (SA Biosciences, Fredrick, Md.) on the ABI Prism 7000 system (Applied Biosystem, Calif.).

For C[C@@H]1C[C@H]2[C@@H]3CCC4=CC(=O)C=C[C@]4(C)[C@@]3(F)[C@@H](O)C[C@]2(C)[C@@]1(O)C(=O)CO [DEX, dexamethasone], the “toxicity (MTT viability)” value (1 μM) was “not toxic” and the reduction of viability (10 μM) was 25%.
